According to ChEMBL document CHEMBL3638859, “Aryl benzylamine compounds” (2014):

Molecular target: Sphingosine 1-phosphate receptor 1 (Homo sapiens, UniProt P21453)
Assay: Receptor Calcium FLIPR Antagonist Assay: The assay measures intracellular changes of Ca2+ mediated by the synthetic probing agonist 3-{[2-(2-Trifluoromethyl-biphenyl-4-yl)-benzo[b]thiophen-5-ylmethyl]-amino}-propionic acid (GNF-AC-1) in the HeLa-S1P1/Galpha16 cell clone 1: HeLa (human cervix carcinoma, ATCC CCL2) cells stably expressing N-terminally myc-tagged human S1P1 receptors (GenBank accession No. NM001400; UNIPROT P21453) and promiscuous Galpha16 protein (GenBank accession number M63904, Swissprot P30679) are cultured at 37 C., 5% CO2, and 95% relative humidity. The cells are plated in 384 well black plates (10'000 cells per well). After 24 hours the cells are loaded with Fluo-4-AM (1.6 uM in HBSS and 2.5 mM probenicid) for 1 hour at 37 C. After washing, the cells are transferred to the FLIPR. The test compounds are added at different concentrations (<=100 uM) in HBSS in the presence of 0.1% BSA and changes in fluorescence are recorded (indication of agonism).
Type: functional, cell-based

Sphingosine 1-phosphate receptor 1, sequence (P21453 whole entry): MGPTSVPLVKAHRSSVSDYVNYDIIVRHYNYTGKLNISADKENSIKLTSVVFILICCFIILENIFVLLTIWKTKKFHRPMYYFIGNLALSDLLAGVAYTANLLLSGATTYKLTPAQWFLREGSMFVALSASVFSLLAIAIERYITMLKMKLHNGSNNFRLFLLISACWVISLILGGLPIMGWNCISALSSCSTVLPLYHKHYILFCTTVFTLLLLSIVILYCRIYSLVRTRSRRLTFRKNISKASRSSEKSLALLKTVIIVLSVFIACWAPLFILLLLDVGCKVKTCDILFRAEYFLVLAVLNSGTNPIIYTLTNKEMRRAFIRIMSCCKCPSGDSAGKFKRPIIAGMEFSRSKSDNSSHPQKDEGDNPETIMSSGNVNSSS

IC50 [nM] | SMILES
2.4 | CC[C@@H](Nc1ccc(Cl)c(CNCCC(=O)O)c1)c1cc(C)c(Cl)c(C)c1
0.1 | Cc1cc([C@H](Nc2ccc(F)c(CN3CC(C(=O)O)C3)c2)C(F)(F)F)ccc1Cl
